Source: patent publication US9834520B2, “Heterocyclic compound” (TAKEDA PHARMACEUTICAL COMPANY LIMITED, priority 2013, dated 2017)

How the values were obtained:
[1] = target: T1, RORγt (Homo sapiens, UniProt P51449); test: RORγt binding test (TR-FRET, fluorescent-labeled cholesterol); conditions: binding inhibitory rate of fluorescent-labeled cholesterol to RORγt at test compound 1 μM
T1 sequence (P51449 1-497 isoform P51449-2): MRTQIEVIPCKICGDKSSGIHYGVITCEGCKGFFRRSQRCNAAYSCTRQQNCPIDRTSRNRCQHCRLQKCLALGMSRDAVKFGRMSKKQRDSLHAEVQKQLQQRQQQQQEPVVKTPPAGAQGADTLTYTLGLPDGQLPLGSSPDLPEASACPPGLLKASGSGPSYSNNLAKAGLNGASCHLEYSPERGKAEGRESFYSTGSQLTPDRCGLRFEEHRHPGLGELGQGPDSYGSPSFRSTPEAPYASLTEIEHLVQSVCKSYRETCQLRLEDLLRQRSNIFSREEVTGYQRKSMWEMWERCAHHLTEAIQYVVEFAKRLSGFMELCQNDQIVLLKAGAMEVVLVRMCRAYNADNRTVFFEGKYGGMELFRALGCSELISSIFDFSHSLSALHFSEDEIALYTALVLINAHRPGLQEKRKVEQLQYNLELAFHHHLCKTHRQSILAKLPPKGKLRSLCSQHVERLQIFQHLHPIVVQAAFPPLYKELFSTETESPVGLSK
Experimental: The binding activity of the test compound to RORγt was measured by a time resolved fluorescence resonance energy transfer method (TR-FRET) utilizing histidine-tagged RORγt, fluorescent-labeled cholesterol (BODIPY-cholesterol, AVIVA) and terbium-labeled anti-histidine tag antibody (Invitrogen). First, a test compound diluted with an assay buffer (20 mM Tris-HCl (pH 7.5), 100 mM NaCl, 1 mM DTT, 0.1% BSA) was added to a 384 well plate by 3 μL each. Then, RORγt diluted with an assay buffer to 240 nM was added by 3 μL each, after which fluorescent-labeled cholesterol diluted with the assay buffer to 12 μM was added by 3 μL each, and the mixture was stood at room temperature for 20 min. Thereafter, a terbium-labeled anti-histidine tag antibody diluted with the assay buffer to 8 nM was added by 3 μL each. The mixture was stood at room temperature for 20 min, and fluorescence intensity (excitation wavelength 320 nm, fluorescence wavelength 520 nm, delay time 100 microseconds) was measured by Envision (PerkinElmer).

[2] = target: T1, RORγt; test: Cofactor recruitment test (Alpha Screen, biotinylated SRC-1 peptide); format: biochemical; conditions: test compound 1 μM; for inhibition at 1 µM: read-out: signal value inhibitory rate (%)
Experimental: Cofactor Recruitment Test
Cofactor recruitment test was performed by Alpha Screen (Histidine Detection Kit, PerkinElmer) method. First, a test compound diluted with an assay buffer (50 mM Tris-HCl (pH 7.5), 50 mM KCl, 1 mM DTT, 0.1% BSA) was added to a 384 well plate by 5 μL each. […] The mixture was stood in a dark place for 1 hr, and the signal value was measured by Envision (PerkinElmer).

[3] = target: T1, RORγt; test: Jurkat reporter test (IL-17 ROR response element luciferase); format: cell-based; parameters: expressed in transfected cells; host or cells: Jurkat cells; conditions: test compound 3 μM, Jurkat cells; for inhibition at 3 µM: Jurkat, read-out: luminescence level inhibitory rate (%)
Experimental: The Jurkat cells used for the reporter test were cultured in a culture medium (RPMI (Invitrogen), 10% FCS (AusGeneX), 100 U/mL penicillin, 100 μg/mL streptomycin). On the day of the test, 4×10^7 cells were recovered by a centrifugal operation (1000 rpm, 5 min.) and suspended in PBS (phosphate buffered saline) (Invitrogen). Thereafter, the cells were recovered again by a centrifugal operation, and suspended in 2 mL of R buffer (NEON transfection kit, Invitrogen). […] Gene transfer was performed by Electroporation apparatus (NEON, Invitrogen) under the conditions of pulse voltage 1350 V, interval 10 milliseconds, number of times 3. The cells after gene transfer were suspended in 40 mL of a reaction medium (RPMI, 10% Lipid reduced FCS (HyClone), 10 mM HEPES (pH 7.5), 100 U/mL penicillin, 100 μg/mL streptomycin, 5 μM lovastatin), and plated in a 96 well plate by 90 μL each. A test compound diluted with the reaction medium was added by 10 μL each, and the cells were cultured overnight in an incubator. Bright-Glo (Promega) was added by 100 μL each, and the mixture was stirred at room temperature for 10 min, and the luminescence level was measured by Envision (PerkinElmer).

CCN1Cc2cc(NC(=O)CC(C)CC(=O)Nc3ccc(C#N)c(Cl)c3)ccc2N(CC)C1=O (centres unmarked) [Example 16, N-(3-chloro-4-cyanophenyl)-N′-(1,3-diethyl-2-oxo-1,2,3,4-tetrahydroquinazolin-6-yl)-3-methylpentanediamide]
inhibition at 1 µM [1]: 92.8% | inhibition at 1 µM [2]: 104% | inhibition at 3 µM [3]: 117%

CCn1c(=O)n(COC)c(=O)c2cc(NC(=O)CC(C)CC(=O)Nc3ccc(C#N)c(Cl)c3)ccc21 (centres unmarked) [Example 19, N-(3-chloro-4-cyanophenyl)-N′-(1-ethyl-3-(methoxymethyl)-2,4-dioxo-1,2,3,4-tetrahydroquinazolin-6-yl)-3-methylpentanediamide]
inhibition at 1 µM [1]: 99.6% | inhibition at 1 µM [2]: 104% | inhibition at 3 µM [3]: 115%

CCn1c(=O)n(CCOC)c(=O)c2cc(NC(=O)CC(C)CC(=O)Nc3ccc(C#N)c(Cl)c3)ccc21 (centres unmarked) [Example 20, N-(3-chloro-4-cyanophenyl)-N′-(1-ethyl-3-(2-methoxyethyl)-2,4-dioxo-1,2,3,4-tetrahydroquinazolin-6-yl)-3-methylpentanediamide]
inhibition at 1 µM [1]: 101% | inhibition at 1 µM [2]: 105% | inhibition at 3 µM [3]: 116%

CCn1c(=O)n(CCCOC)c(=O)c2cc(NC(=O)CC(C)CC(=O)Nc3ccc(C#N)c(Cl)c3)ccc21 (centres unmarked) [Example 21, N-(3-chloro-4-cyanophenyl)-N′-(1-ethyl-3-(3-methoxypropyl)-2,4-dioxo-1,2,3,4-tetrahydroquinazolin-6-yl)-3-methylpentanediamide]
inhibition at 1 µM [1]: 103% | inhibition at 1 µM [2]: 104% | inhibition at 3 µM [3]: 118%

C#CCn1c(=O)c2cc(NC(=O)CC(C)CC(=O)Nc3ccc(C#N)c(Cl)c3)ccc2n(CC)c1=O (centres unmarked) [Example 28, N-(3-chloro-4-cyanophenyl)-N′-(1-ethyl-2,4-dioxo-3-(prop-2-yn-1-yl)-1,2,3,4-tetrahydroquinazolin-6-yl)-3-methylpentanediamide]
inhibition at 1 µM [1]: 99.3% | inhibition at 1 µM [2]: 105% | inhibition at 3 µM [3]: 115%

CCn1c(=O)n(C[Si](C)(C)C)c(=O)c2cc(NC(=O)CC(C)CC(=O)Nc3ccc(C#N)c(Cl)c3)ccc21 (centres unmarked) [Example 32, N-(3-chloro-4-cyanophenyl)-N′-(1-ethyl-2,4-dioxo-3-((trimethylsilyl)methyl)-1,2,3,4-tetrahydroquinazolin-6-yl)-3-methylpentanediamide]
inhibition at 1 µM [1]: 98.5% | inhibition at 1 µM [2]: 103% | inhibition at 3 µM [3]: 114%

CCn1c(=O)c2cc(C(=O)NCC(CC(=O)Nc3ccc(C#N)c(Cl)c3)C(C)C)ccc2n(CC)c1=O (centres unmarked) [Example 35, N-(4-((3-chloro-4-cyanophenyl)amino)-2-isopropyl-4-oxobutyl)-1,3-diethyl-2,4-dioxo-1,2,3,4-tetrahydroquinazoline-6-carboxamide]
binding inhibitory rate (%) ([1]; 1 µM): 102.0% | signal value inhibitory rate (%) ([2]; 1 µM): 105.0% | luminescence level inhibitory rate (%) ([3]; 3 µM): 122.0%

CCn1c(=O)n(C2CC2)c(=O)c2cc(NC(=O)CC(C)CC(=O)Nc3ccc(C#N)c(Cl)c3)ccc21 (centres unmarked) [Example 60, N-(3-chloro-4-cyanophenyl)-N′-(3-cyclopropyl-1-ethyl-2,4-dioxo-1,2,3,4-tetrahydroquinazolin-6-yl)-3-methylpentanediamide]
inhibition at 1 µM [1]: 102% | inhibition at 1 µM [2]: 103% | inhibition at 3 µM [3]: 122%

CCn1c(=O)n(CSC)c(=O)c2cc(NC(=O)CC(C)CC(=O)Nc3ccc(C#N)c(Cl)c3)ccc21 (centres unmarked) [Example 65, N-(3-chloro-4-cyanophenyl)-N′-(1-ethyl-3-((methylsulfanyl)methyl)-2,4-dioxo-1,2,3,4-tetrahydroquinazolin-6-yl)-3-methylpentanediamide]
inhibition at 1 µM [1]: 100% | inhibition at 1 µM [2]: 102% | inhibition at 3 µM [3]: 102%

CCn1c(=O)c2cc(NC(=O)CC(C)CC(=O)Nc3ccc(C#N)c(Cl)c3)ccc2n(CSC)c1=O (centres unmarked) [Example 99, N-(3-chloro-4-cyanophenyl)-N′-(3-ethyl-1-((methylsulfanyl)methyl)-2,4-dioxo-1,2,3,4-tetrahydroquinazolin-6-yl)-3-methylpentanediamide]
inhibition at 1 µM [1]: 95.6% | inhibition at 1 µM [2]: 103% | inhibition at 3 µM [3]: 102%

CC(O)(CC(=O)Nc1ccc(C#N)c(Cl)c1)CC(=O)Nc1ccc2c(c1)c(=O)n(CC1CC1)c(=O)n2CC1CC1 (centres unmarked) [Example 102, N-(1,3-bis(cyclopropylmethyl)-2,4-dioxo-1,2,3,4-tetrahydroquinazolin-6-yl)-N′-(3-chloro-4-cyanophenyl)-3-hydroxy-3-methylpentanediamide]
inhibition at 1 µM [1]: 103% | inhibition at 1 µM [2]: 104% | inhibition at 3 µM [3]: 104%

CC(CNC(=O)c1cc2c(=O)n(CC3CC3)c(=O)n(CC3CC3)c2cn1)CC(=O)Nc1ccc(C#N)c(Cl)c1 (centres unmarked) [Example 112, N-(4-((3-chloro-4-cyanophenyl)amino)-2-methyl-4-oxobutyl)-1,3-bis(cyclopropylmethyl)-2,4-dioxo-1,2,3,4-tetrahydropyrido[3,4-d]pyrimidine-6-carboxamide]
inhibition at 1 µM [1]: 96.6% | inhibition at 1 µM [2]: 100% | inhibition at 3 µM [3]: 97.7%

CC(CC(=O)Nc1ccc(C#N)c(Cl)c1)CC(=O)Nc1cc2c(=O)n(CC3CC3)c(=O)n(CC3CC3)c2cn1 (centres unmarked) [Example 113, N-(1,3-bis(cyclopropylmethyl)-2,4-dioxo-1,2,3,4-tetrahydropyrido[3,4-d]pyrimidin-6-yl)-N′-(3-chloro-4-cyanophenyl)-3-methylpentanediamide]
inhibition at 1 µM [1]: 103% | inhibition at 1 µM [2]: 102% | inhibition at 3 µM [3]: 96.5%

CCn1c(=O)c2cc(NC(=O)CC(C)CC(=O)Nc3ccc(C#N)c(Cl)c3)ncc2n(CC)c1=O (centres unmarked) [Example 124, N-(3-chloro-4-cyanophenyl)-N′-(1,3-diethyl-2,4-dioxo-1,2,3,4-tetrahydropyrido[3,4-d]pyrimidin-6-yl)-3-methylpentanediamide]
inhibition at 1 µM [2]: 101% | inhibition at 3 µM [3]: 100%

CC(C)n1c(=O)n(CC2CC2)c(=O)c2cc(NC(=O)CC(C)(O)CC(=O)Nc3ccc(C#N)c(Cl)c3)ccc21 (centres unmarked) [Example 142, N-(3-chloro-4-cyanophenyl)-N′-(3-(cyclopropylmethyl)-1-isopropyl-2,4-dioxo-1,2,3,4-tetrahydroquinazolin-6-yl)-3-hydroxy-3-methylpentanediamide]
inhibition at 1 µM [2]: 103% | inhibition at 3 µM [3]: 103%

CC(CC(=O)Nc1ccc(C#N)c(Cl)c1)CC(=O)Nc1ccc2c(c1)c(=O)n(CC1CC1)c(=O)n2C(C)C (centres unmarked) [Example 144, N-(3-chloro-4-cyanophenyl)-N′-(3-(cyclopropylmethyl)-1-isopropyl-2,4-dioxo-1,2,3,4-tetrahydroquinazolin-6-yl)-3-methylpentanediamide]
inhibition at 1 µM [2]: 102% | inhibition at 3 µM [3]: 103%

CC(CC(=O)Nc1ccc(C#N)c(Cl)c1)CC(=O)Nc1ccc2c(c1)C(=O)N(CC1CC1)C(=O)C21CCCC1 (centres unmarked) [Example 145, N-(3-chloro-4-cyanophenyl)-N′-(2′-(cyclopropylmethyl)-1′,3′-dioxo-2′,3′-dihydro-1′H-spiro[cyclopentane-1,4′-isoquinoline]-7′-yl)-3-methylpentanediamide]
inhibition at 1 µM [2]: 103% | inhibition at 3 µM [3]: 103%
